Source: paper PMC8969271, “Release of moth pheromone compounds from Nicotiana benthamiana upon transient expression of heterologous biosynthetic genes” (BMC Biology, 2022)

Assays:
Assay type in all cases: cell-based
CsupFAR2 [1] = biological target: T1, CsupFAR2 (Chilo suppressalis, UniProt A0A3S2LS93); assay: co-expression with CsupKPSE in N. benthamiana leaves, GC/MS of fatty alcohols; settings: acyl form in cells, presumably acyl-CoA; product (Z)-9-hexadecenol
T1 construct: full-length ORF 1404 nt, 468 aa; synthesized gene; expressed in S. cerevisiae INVSc (pYES52) and N. benthamiana leaves
T1 sequence (A0A3S2LS93 1-468): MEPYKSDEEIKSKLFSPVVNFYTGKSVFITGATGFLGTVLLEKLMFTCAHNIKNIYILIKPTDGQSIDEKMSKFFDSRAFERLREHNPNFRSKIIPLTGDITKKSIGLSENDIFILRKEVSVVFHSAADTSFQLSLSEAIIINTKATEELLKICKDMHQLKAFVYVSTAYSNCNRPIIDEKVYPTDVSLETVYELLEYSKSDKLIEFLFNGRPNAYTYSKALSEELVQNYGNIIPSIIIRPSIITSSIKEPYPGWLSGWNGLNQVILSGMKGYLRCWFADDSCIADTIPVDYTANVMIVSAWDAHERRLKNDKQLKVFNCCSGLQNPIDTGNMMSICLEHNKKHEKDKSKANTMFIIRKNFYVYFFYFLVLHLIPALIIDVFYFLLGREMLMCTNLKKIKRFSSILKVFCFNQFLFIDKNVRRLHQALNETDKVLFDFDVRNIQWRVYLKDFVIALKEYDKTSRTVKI

CsupKPSE = biological target: T2, CsupKPSE (Chilo suppressalis, UniProt A0A5Q0V425); assay: heterologous expression in yeast and N. benthamiana, GC/MS of fatty acid methyl esters; settings: endogenous palmitic acid (acyl form in cells, presumably acyl-CoA); product (Z)-9-hexadecenoic acid
T2 construct: full-length ORF 1059 nt, 353 aa; synthesized gene; expressed in S. cerevisiae ole1/elo1 and N. benthamiana leaves
T2 sequence (A0A5Q0V425 20-371): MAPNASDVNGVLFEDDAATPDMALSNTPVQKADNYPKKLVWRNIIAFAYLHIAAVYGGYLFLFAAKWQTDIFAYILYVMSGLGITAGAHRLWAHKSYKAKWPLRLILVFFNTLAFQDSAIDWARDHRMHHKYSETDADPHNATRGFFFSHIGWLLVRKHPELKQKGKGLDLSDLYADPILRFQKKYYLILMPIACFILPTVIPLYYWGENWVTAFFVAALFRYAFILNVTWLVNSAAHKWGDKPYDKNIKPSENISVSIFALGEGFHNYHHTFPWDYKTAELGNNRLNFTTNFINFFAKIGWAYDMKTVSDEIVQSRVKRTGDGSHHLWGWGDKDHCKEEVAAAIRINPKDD

CsupFAR2 [2] = biological target: T1, CsupFAR2; assay: heterologous expression in yeast and N. benthamiana, GC/MS of fatty alcohols; settings: yeast supplemented with methyl (Z)-11-hexadecenoate or co-expressing CsupYPAQ; acyl form in cells, presumably acyl-CoA; product (Z)-11-hexadecenol
ATF1 = biological target: T3, ATF1 (Saccharomyces cerevisiae, UniProt P40353); assay: co-expression with desaturases and CsupFAR2 in N. benthamiana leaves, SPME and GC/MS; settings: endogenous acetyl donor; product (Z)-11-hexadecenyl acetate
T3 construct: expressed transiently in N. benthamiana leaves with AtrΔ11, CpuFatB1, CsupYPAQ and CsupFAR2
T3 sequence (P40353 1-525): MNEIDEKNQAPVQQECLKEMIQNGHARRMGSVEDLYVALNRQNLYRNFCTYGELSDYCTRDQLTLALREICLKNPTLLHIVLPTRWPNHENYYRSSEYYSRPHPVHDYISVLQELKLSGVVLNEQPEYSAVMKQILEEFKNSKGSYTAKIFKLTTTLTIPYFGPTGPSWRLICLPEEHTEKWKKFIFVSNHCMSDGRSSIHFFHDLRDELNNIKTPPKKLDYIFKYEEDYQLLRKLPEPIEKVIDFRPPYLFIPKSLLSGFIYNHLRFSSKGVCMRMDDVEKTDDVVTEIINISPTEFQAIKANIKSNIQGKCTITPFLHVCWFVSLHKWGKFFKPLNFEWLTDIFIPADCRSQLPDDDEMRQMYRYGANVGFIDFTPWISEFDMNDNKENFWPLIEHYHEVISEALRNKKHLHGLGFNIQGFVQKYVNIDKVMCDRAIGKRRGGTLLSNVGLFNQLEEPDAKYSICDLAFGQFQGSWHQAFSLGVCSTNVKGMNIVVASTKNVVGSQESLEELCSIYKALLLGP

Structure (SMILES): CCCCCC/C=C\CCCCCCCC(=O)O [Z9-16:acid, (Z)-9-hexadecenoic acid]
- co-expression with CsupKPSE in N. benthamiana leaves, GC/MS of fatty alcohols (CsupFAR2 [1]): a minor amount of (Z)-9-hexadecenol (Z9-16:OH) was produced

Structure (SMILES): CCCCCCCCCCCCCCCC(=O)O [16:acid, palmitic acid]
- heterologous expression in yeast and N. benthamiana, GC/MS of fatty acid methyl (CsupKPSE): CsupKPSE producing Z9-16:acid, the precursor of the minor pheromone component from palmitic acid

Structure (SMILES): CCCC/C=C\CCCCCCCCCC(=O)O [Z11-16:acid, (Z)-11-hexadecenoic acid]
- heterologous expression in yeast and N. benthamiana, GC/MS of fatty alcohols (CsupFAR2 [2]): it reduced the C. suppressalis pheromone precursors Z11-16:acid, Z9-16:acid

Structure (SMILES): CCCC/C=C\CCCCCCCCCCO [Z11-16:OH, (Z)-11-hexadecenol]
- co-expression with desaturases and CsupFAR2 in N. benthamiana leaves, SPME and G (ATF1): Upon co-expression of the acetyltransferase gene ATF1, Z11-16:OAc was also released together with Z11-16:OH
